Test results from ChEMBL document CHEMBL1201862, “PubChem BioAssay data set” (2004).
Active and inactive are the calls of the source. For most assays here, no stated cut-off is given here; in the data, actives have a measured EC50 and inactives only a lower limit.

What was measured:
Streptococcus = test: Group A Streptococcus viability loss, dose response, counter-screen for streptokinase expression inhibitor project, luminescence, BacTiterGlo (AID 1915); assay type: functional, organism-based;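 further: potency for reduction of bacterial viability or growth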
[1] = system: Streptococcus sp. 'group A'; test: growth inhibition of control SK(-) GAS strain, dose response, counter-screen for streptokinase expression inhibitor project, luminescence, kanamycin, BacTiterGlo, confirmation (AID 1900); assay type: functional, organism-based
Streptokinase A = target: T1, Streptokinase A (Streptococcus pyogenes serotype M1, UniProt P10520); test: S. pyogenes streptokinase expression inhibitors, potency, dose response, plasminogen activation absorbance, OD405 (AID 1914); assay type: functional, Streptococcus pyogenes M1 GAS;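 further: secreted streptokinase activity via plasminogen activation per viability signal from cell pellet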
T1 sequence (P10520 whole entry): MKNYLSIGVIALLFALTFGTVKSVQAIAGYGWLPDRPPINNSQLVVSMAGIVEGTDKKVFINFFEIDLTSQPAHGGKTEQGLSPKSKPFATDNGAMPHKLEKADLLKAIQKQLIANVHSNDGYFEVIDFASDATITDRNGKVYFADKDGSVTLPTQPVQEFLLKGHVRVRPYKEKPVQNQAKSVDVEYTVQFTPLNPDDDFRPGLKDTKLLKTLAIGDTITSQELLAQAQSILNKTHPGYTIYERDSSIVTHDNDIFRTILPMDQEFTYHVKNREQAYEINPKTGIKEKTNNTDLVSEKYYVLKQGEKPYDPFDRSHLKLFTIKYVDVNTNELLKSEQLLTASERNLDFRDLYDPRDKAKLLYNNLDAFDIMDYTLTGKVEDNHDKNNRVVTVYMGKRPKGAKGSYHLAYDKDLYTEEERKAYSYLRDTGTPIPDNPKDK

[2] = HEp-2 cell cytotoxicity, dose response, cytotoxicity control for RSV inhibitor project, HTS (AID 2410); assay type: functional; conditions: human respiratory syncytial virus
Cytochrome P450 1A2 = target: T2, Cytochrome P450 1A2 (Homo sapiens, UniProt P05177);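 further: PubChem cytochrome P450 panel assay, CYP1A2 panel member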
T2 sequence (P05177 whole entry): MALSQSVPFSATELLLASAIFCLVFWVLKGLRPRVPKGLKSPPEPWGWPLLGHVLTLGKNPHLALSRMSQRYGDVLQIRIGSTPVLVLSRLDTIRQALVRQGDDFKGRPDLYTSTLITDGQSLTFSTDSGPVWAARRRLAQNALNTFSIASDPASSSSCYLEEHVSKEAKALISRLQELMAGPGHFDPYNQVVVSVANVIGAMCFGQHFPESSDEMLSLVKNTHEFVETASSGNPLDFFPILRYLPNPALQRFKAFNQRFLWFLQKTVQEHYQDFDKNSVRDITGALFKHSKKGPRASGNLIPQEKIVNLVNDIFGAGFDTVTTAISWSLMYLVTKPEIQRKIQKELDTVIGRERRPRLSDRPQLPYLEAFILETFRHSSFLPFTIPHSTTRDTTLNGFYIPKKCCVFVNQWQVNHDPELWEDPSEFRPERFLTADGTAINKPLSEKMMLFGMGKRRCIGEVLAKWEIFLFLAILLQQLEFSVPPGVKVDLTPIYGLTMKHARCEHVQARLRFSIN

[3] = inhibitors of intracellular T. cruzi replication, confirmation, NIH3T3 host cells, beta-gal luminescence (AID 2044); assay type: functional, cell-based;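 further: intracellular parasites grown in NIH/3T3 mouse fibroblasts as host cells; luminescent beta-galactosidase reporter signal from transgenic T. cruzi replicating inside host cells; inhibitors lower the luminescence signal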
[4] = cytotoxicity toward NIH3T3 fibroblasts, dose response, counter-screen, cell-based, ATP luminescence, mouse fibroblasts (AID 2010); assay type: functional;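 further: cells exposed to compound for about 90 hours before reading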
[5] = Luminescence Cell-Based Dose Retest to Confirm Inhibitors of Cancer Stem Cells. [Related pubchem assays (depositor defined):AID2717, AID2721]; assay type: functional; conditions: Homo sapiens
INS1 = test: beta cell apoptosis inhibitors, cytokine rescue, dose response, luminescence, retest (AID 449756); assay type: functional, cell-based; conditions: Rattus norvegicus;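 further: cell death triggered by IL-1 beta plus TNF-alpha plus IFN-gamma mixture; protective hits raise ATP signal compared with cytokine alone wells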

Cc1cc(C)nc(NC(=N)NCCc2c[nH]c3ccccc23)n1
EC50 (Streptococcus): > 150 µM (not active)
EC50 [1]: 7.95 µM (active)
EC50 (Streptokinase A): > 150 µM (not active)

CCOCCCN=C(S)N1CCCN(c2nc3cc(C)cc(C)c3cc2C#N)CC1
CC50 [2]: 31.4 µM (active)

CNc1nc(OC)nc(N(C#N)CN2C(=O)c3ccccc3S2(=O)=O)n1
EC50 (Streptococcus): > 150 µM (not active)
EC50 [1]: > 150 µM (not active)
EC50 (Streptokinase A): > 150 µM (not active)

N#CCCn1c(=O)c(-c2ccccc2)nc2cnc(Nc3ccccc3)nc21
AC50 (Cytochrome P450 1A2): 0.794 µM (inconclusive)

COc1ccc(/C=C2\SC(=S)N(NS(=O)(=O)c3ccccc3)C2=O)c(OC)c1
CC50 [2]: 35.4 µM (active)

CCC(C)Sc1ccc(-c2nc3ccc(C)cn3c2NC2CCCCC2)cc1 (stereo unspecified)
EC50 [3]: 0.885 µM (active)
EC50 [4]: > 60 µM (not active)

COc1ccc(OC)c(NC(=O)c2cccc(Cn3cc(Br)c([N+](=O)[O-])n3)c2)c1
EC50 [3]: 0.794 µM (active)
EC50 [4]: 9.07 µM (active)

COc1cc(C(=O)NCCCN(C)C)ccc1OCC(=O)Nc1cccc(C(F)(F)F)c1
EC50 [3]: 1.23 µM (active)
EC50 [4]: > 60 µM (not active)

Cc1ccc(C)c(OCCCCN2CCNCC2)c1C
AC50 [5]: 1.03 µM (active)

O=C(c1cc2sccc2n1Cc1ccc(F)cc1)N1CCc2ccccc21
CC50 [2]: 36.2 µM (active)

CN(C)S(=O)(=O)Oc1ccsc1C(=O)Nc1cccc(Cl)c1Cl
EC50 [3]: 3.47 µM (active)
EC50 [4]: > 60 µM (not active)

CCOC(=O)CC(=O)CSc1nc(N)c(C#N)c(-c2ccc(Cl)cc2)c1C#N
CC50 [2]: 23.6 µM (active)

Cc1ccc(-c2cc(C(F)F)nc(NCc3cccnc3)n2)cc1
EC50 [3]: 3.05 µM (active)
EC50 [4]: > 60 µM (not active)

CCOc1ccc(CNCCCSc2ncccn2)cc1
EC50 [3]: 0.909 µM (active)
EC50 [4]: 9.74 µM (active)

Cc1ccc(C)c(N2CCN(C(=O)c3ccc4c(c3)c(C)c(C)n4C)CC2)c1
AC50 [5]: 6.01 µM (active)

O=C(O)c1ccccc1NCn1c(=S)sc2ccccc21
AC50 (Cytochrome P450 1A2): 0.501 µM (inconclusive)

COCC(C)n1c(SCc2ccc(OC)c(F)c2)nc2ccccc2c1=O (stereo unspecified)
EC50 [3]: 2.17 µM (active)
EC50 [4]: > 60 µM (not active)

CN1[C@@H]2CC[C@H]1CC(OC(=O)c1cc(Cl)cc(Cl)c1)C2 (stereo partly specified)
AC50 (Cytochrome P450 1A2): 31.6 µM (inconclusive)

COc1ccc(Br)cc1C(=O)Nc1cccc(C)c1
AC50 [5]: > 195 µM (inactive)

O=C(Nc1ccccc1-c1nc2ccccc2[nH]1)c1ccc(S(=O)(=O)N2CCCCC2)cc1
AC50 (Cytochrome P450 1A2): 3.55 µM (inconclusive)

O=C(NCCc1ccccn1)c1ccc(OC2CCN(Cc3ccccn3)CC2)cc1
EC50 (Streptococcus): > 150 µM (not active)
EC50 [1]: > 150 µM (not active)
EC50 (Streptokinase A): > 150 µM (not active)

CC1CCN(c2ccc(NC(=O)c3ccc([N+](=O)[O-])o3)cc2)CC1
EC50 [3]: > 16 µM (not active)
EC50 [4]: 4.41 µM (active)
AC50 (INS1): 10.3 µM (active)

CN(C)CCCNS(=O)(=O)c1ccc(NC2CCCCCC2)c([N+](=O)[O-])c1
AC50 (INS1): 6.22 µM (active)

O=C(NNC(=S)NC(=O)c1ccccc1)c1cccc([N+](=O)[O-])c1
EC50 (Streptococcus): 8.75 µM (active)
EC50 [1]: 3.85 µM (active)

Cc1ccc(C)c(S(=O)(=O)NC(C)C(=O)Nc2ccc(-c3nc4ccccc4s3)cc2)c1 (stereo unspecified)
AC50 (Cytochrome P450 1A2): 15.8 µM (inconclusive)

COc1ccc2nc(NC(=S)NC(=O)c3ccco3)sc2c1
CC50 [2]: > 50 µM (active)

O=C(c1ccco1)N1CCC2(CCCN(Cc3ccncc3)C2)CC1
AC50 (Cytochrome P450 1A2): 15.8 µM (inconclusive)

COCc1cc(C)nc2sc(C(=O)NN)c(-n3cccc3)c12
CC50 [2]: 14.3 µM (active)

Cc1cc(C)nc(NC(=O)/C=C/c2ccc3c(c2)OCO3)c1
AC50 [5]: 1.91 µM (active)

COc1cc(NC(=O)Nc2cccc(Cl)c2)c(OC)cc1NC(=O)CN1CCCCC1
AC50 [5]: 4.44 µM (active)

COC(=O)NC(=S)Nc1ccc(Oc2ccc(Cl)cc2)c(Cl)c1
EC50 [3]: 2.41 µM (active)
EC50 [4]: > 60 µM (not active)

CCN(CC)S(=O)(=O)c1ccc(Cl)c(C(=O)Nc2ccc(Cl)cc2[N+](=O)[O-])c1
AC50 (INS1): 7.83 µM (active)

CCOC(=O)C1(S(=O)(=O)c2ccc(Cl)cc2)CCN(Cc2ccc(Cl)cc2)CC1
AC50 (Cytochrome P450 1A2): 31.6 µM (inconclusive)

Cc1c(CCC(=O)O)c(=O)oc2cc3occ(-c4ccc(Cl)cc4)c3cc12
EC50 (Streptococcus): > 150 µM (not active)
EC50 [1]: 7.96 µM (active)
EC50 (Streptokinase A): > 150 µM (not active)

Cc1nc(O)c(C#N)c(Nc2ccc(Cl)cc2)n1
CC50 [2]: 32.3 µM (active)

Cc1ccc(CN(Cc2cccnc2)C(=O)CN2C(=O)COc3ccccc32)o1
EC50 [3]: 0.276 µM (active)
EC50 [4]: > 60 µM (not active)

CCCOc1ccc2c3c(c(=O)oc2c1OCCC)CCCC3
CC50 [2]: 23.5 µM (active)
AC50 (INS1): 13.7 µM (active)

Cc1cccc(-n2c(N)c(-c3nc4ccccc4n3C)c3nc4ccccc4nc32)c1
EC50 (Streptococcus): > 150 µM (not active)
EC50 [1]: 3.66 µM (active)
EC50 (Streptokinase A): > 150 µM (not active)

CC(C)[C@H](NC(=O)N1CC(=O)Nc2ccccc21)C(=O)N[C@@H](Cc1ccccc1)C(=O)O
EC50 (Streptococcus): > 150 µM (not active)
EC50 [1]: > 150 µM (not active)
EC50 (Streptokinase A): > 150 µM (not active)

FCCCOc1ccc(-c2nccc(-c3ccc(F)cc3)n2)cc1
CC50 [2]: 26 µM (active)

O=C(Nc1nc2cc3c(cc2s1)OCO3)C1CC1
EC50 [3]: 1.3 µM (active)
EC50 [4]: > 60 µM (not active)

COc1ccc(NC(=O)/C=C/c2cccc(F)c2)cn1
CC50 [2]: 34.7 µM (active)

Cc1cc(C(=O)CSc2nnc(N)s2)c(C)n1CCc1ccc(Cl)cc1
CC50 [2]: 17.1 µM (active)

O=C(CCn1ccnc1)Nc1ccc2ccccc2c1
EC50 [3]: 1.63 µM (active)
EC50 [4]: > 60 µM (not active)

Cc1sc2[nH]c(-c3ccccn3)nc(=O)c2c1-c1ccccc1
EC50 (Streptokinase A): > 150 µM (not active)

CCNC(=O)COC(=O)/C=C/c1c(C)nn(Cc2cccc(OC)c2)c1Cl
CC50 [2]: > 50 µM (active)

C[C@H](CO)N1C[C@H](C)[C@@H](CN(C)S(=O)(=O)c2ccccc2)Oc2ccc(NC(=O)Nc3ccc(C(F)(F)F)cc3)cc2C1=O
AC50 [5]: 8.42 µM (active)

NS(=O)(=O)c1ccc(NCc2cnc3ccccc3c2)cc1
AC50 (Cytochrome P450 1A2): 1.58 µM (inconclusive)

CN(C)CC(C)(C)C/N=C/c1c(O)[nH]c2ccccc12
EC50 [3]: 0.152 µM (active)
EC50 [4]: > 30 µM (not active)

COc1cc([N+](=O)[O-])cc(/C=N/NC(=O)C(C)Nc2cccc(C)c2)c1O (stereo unspecified)
EC50 (Streptococcus): > 150 µM (not active)
EC50 [1]: 10.9 µM (active)
EC50 (Streptokinase A): > 150 µM (not active)

COc1ccc(C(=O)N/N=C(\C)Cn2nc([N+](=O)[O-])cc2C)cc1
AC50 (Cytochrome P450 1A2): 20 µM (inconclusive)
